A short description of data set [1]: Forced degradation (acid, base, heat, oxidation). In kind it is physicochemical.
For data set [2] the following is noted: cited from earlier work.
The nature of data set [3]: Safety, tolerability and pharmacokinetics of (Z)-Endoxifen in healthy female volunteers (Protocol AG-1001-AU-001). The format is in vivo, human. As for the experimental part: The safety, tolerability and pharmacokinetics of (Z)-Endoxifen was assessed in healthy female volunteers (Protocol AG-1001-AU-001). Participants were treated with oral (Z)-Endoxifen (1 mg, 2 mg and 4 mg) once daily for a total of fifteen doses (Days 1, and 8-21).
Average concentration at steady state (AUCtau/tau) were compared to published values.

Data set [4] in a line: Phase I study: safety and tolerability of (Z)-endoxifen tablet and capsule. In kind it is in vivo, human.
Description: The primary objective of the study was to determine and compare the pharmacokinetics of a single oral dose of a previously studied oral (Z)-endoxifen capsule with a sustained release composition in the form of an enteric coated delayed release (Z)-endoxifen tablet (“tablet”) in healthy female volunteers. […] A secondary objective of the study was to assess the safety and tolerability of each of the oral presentation groups and to assess and compare the side effects associated with (Z)-endoxifen (capsule) or the enteric coated delayed-release (Z)-endoxifen tablet using a questionnaire.
A study diary was provided to each participant for the purpose of recording study drug administration (date and time) and adverse events.
Study assessments included taking the subjects' medical history, including evaluation of any on-study adverse events and concomitant medication use; height and weight; physical examination; periodic vital signs (body temperature, heart rate, respiratory rate, blood pressure); periodic 12-lead ECGs. Laboratory tests included hematology, coagulation, urinalysis, serum chemistry, virology, illicit drug screen, alcohol breath test, and pregnancy test.
Specific assessment to evaluate treatment safety included the following: the frequency and type of adverse events, clinical laboratory testing, 12-lead-ECGs and vital signs. A modified FACTES® scoring questionnaire was used to assess symptomatology.
In data set [5] the test system is breast cancer tumor cell proliferation (Ki-67). Kind of data set: Phase 2 clinical trial of oral endoxifen: Ki-67 in breast cancer tumors. The format is in vivo, human. How it is done:
A phase 2 clinical trial of (Z)-endoxifen for treatment of breast cancer was performed. Subjects with invasive breast cancer were administered (Z)-endoxifen orally prior to undergoing mastectomy or lumpectomy. The effect of pre-operative oral (Z)-endoxifen treatment on clinical response measured by Ki-67 expression levels was assessed. Ki-67 expression levels were used as a measure of tumor cell proliferation in the subjects. The purpose of this study was to determine the effect of orally administered endoxifen on breast cancer tumor cell proliferation.
Subjects were selected who had received an invasive breast cancer diagnosis that required a mastectomy or lumpectomy, in which the cancer was Estrogen Receptor (ER) positive and Human Epidermal growth factor Receptor 2 (HER2) negative.
Subjects with ER positive invasive breast cancer that were scheduled for mastectomy or lumpectomy were considered for the study. Subjects consenting to the study were screened within 28 days prior to commencement of the dosing. Potential subjects were asked to consent to have tissue sections obtained from the biopsy material used for their immunopathology diagnosis. The biopsy material was used to determine baseline expression levels for Ki-67, ER, PgR and the exploratory markers.
An initial group of six subjects was selected. Subjects visited the clinical facility once within 2 days prior to commencement of treatment for study assessments. Subjects were supplied with study drug and were asked to self-administer daily. A study diary was provided to each subject for the purpose of recording study drug administration (date and time) and any adverse events. All subjects received an oral daily dose of 4 mg/day (Z)-Endoxifen until the day preceding their scheduled surgery and for a minimum of 14-days. Subjects were instructed to take each dose in the morning in a fasted state, defined as no food at least 8 hours prior to study medication through to one hour following study medication. Subjects were instructed to self-administer (Z)-Endoxifen orally with a full cup (approximately 240 mL) of noncarbonated room temperature water (additional water is permitted, if needed). There are no restrictions related to water intake. Consecutive doses were administered 24 (±2) hours apart. If a scheduled dose was missed, the dose could be taken up to 6 hours after the scheduled dose.
(§1) Each subject returned to the clinical facility for safety assessments on a day during the week preceding their scheduled surgery. The expression of Ki-67, ER, progesterone receptor (PgR), and other exploratory markers, was measured in tumor tissue obtained during the mastectomy (or lumpectomy) and compared to the expression of these markers in pre-operative baseline biopsy material obtained prior to commencement of study treatment. Pharmacodynamic exploratory markers including Proliferating cell nuclear antigen (PCNA, S phase), phosphor-histone H3 (M phase), p16 and p12 (senescence), beta-galactosidase (senescence), Terminal deoxynucleotidyl transferase dUTP nick end labeling (TUNEL, apoptosis), and RNA sequence were assessed. Ki-67, ER, PgR expression were measured using standard immunopathology techniques, and exploratory markers were measured using established laboratory assays. Endoxifen levels in blood measured in blood drawn prior to dosing on day 14 of study treatment administration. Individual and mean serum and plasma concentrations of Endoxifen were tabulated.

Data set [6] in a line: Phase 2 clinical trial of oral endoxifen: safety and tolerability. The format is in vivo, human. Particulars: 4 mg/day, 16-40 days. As for the experimental part:
Secondary effects of orally administered (Z)-endoxifen were also assessed, namely the effect of pre-operative (Z)-endoxifen treatment on the expression levels of estrogen receptor and progesterone receptor. […] Additional exploratory objectives including assessing the effect of pre-operative (Z)-Endoxifen treatment on PCNA (S phase), phospho-Histone H3 (M phase), p16 and p21 (senescence), Beta-Galactosidase (senescence), and TUNEL (apoptosis) markers, and identifying tumor RNA expression changes using RNA sequence.
An initial group of six subjects was selected. Subjects visited the clinical facility once within 2 days prior to commencement of treatment for study assessments. […]
as §1, with “Pharmacodynamic exploratory markers including Proliferating cell nuclear antigen (PCNA, S phase), phosphor-histone H3 (M phase), p16 and p12 (senescence), beta-galactosidase (senescence), Terminal deoxynucleotidyl transferase dUTP nick end labeling (TUNEL, apoptosis), and RNA sequence were assessed.” left out, “Individual and mean serum and plasma concentrations of Endoxifen were tabulated.” left out

Data set [7] can be described thus: Phase I pharmacokinetic study of (Z)-endoxifen tablet and capsule, single and multiple dose. In kind it is in vivo, human. Particulars: for (E)-endoxifen levels in serum and plasma: all the times studied. How it is done: A total of 24 healthy female subjects aged ≥18 years and ≤65 years (inclusive) at the time of screening were randomly assigned and enrolled into two groups (each group n=12) in double-blinded fashion and received the study drug by once daily oral administration. […] Both groups were dosed in the SAD phase of the study. The safety and PK results from both groups were reviewed to determine if both Groups 1 and 2 were to be dosed in the MAD phase of the study, or if only Group 2 (tablets) were to be dosed in the MAD phase. […] The subjects then received 14 daily doses in the MAD. Subjects were not required to take the drugs with food.
Subjects were admitted to the clinical facility on Day 1 for up to 3 days. […] Following completion of all safety assessments and sampling for PK analyses, subjects were discharged from the clinical facility on Day 2. Days 2 to 25 were study drug free or daily dosing pause. A safety summary and up to day 6 post dose, PK data were analyzed (blindedly) and reviewed prior to initiation of the MAD regimen in one or both groups.
MAD regimen started on Day 26. Depending on the outcome of the safety and PK review, wither […] or both Groups 1 and 2 were to be dosed in the MAD part of the study starting on Day 26. […] Subjects in MAD part of the study commenced daily oral administration of the study drug for 14 consecutive days (Days 26 to 39). Subjects were supplied with study drug and instructed to self-administer each morning on empty stomach.
Day 39 was the last day of study drug administration. On Day 39, each subject returned to the clinical facility prior to dose administration and were confined to the facility until Day 40 to allow for collection of blood for PK and safety assessment. Subjects were discharged on Day 40 and returned for blood collection for PK and safety assessment on study Days 42, 44, and 46.
Safety and PK samples was collected during the daily dosing pause on Days 4, 6, 15, and 22.
MAD: Day 26 pre-dose and on Day 32 pre-dose: safety and PK samples was collected. […] Pharmacokinetic parameters determined using Phoenix WinNonlin 8.1. All times used in the calculations of PK parameters were the actual elapsed time from most recent treatment administration, with the exception of pre-dose data which was given the nominal time of 0.00 hr.

The mark [8] stands for this setting: multiple administration dose phase.
Where [9] appears, read: single administration dose phase.

“And” between values parts separate entries of the source, which are not always exact repeats. Identical values can stand only once. Like-named read-outs stand apart in the source and are kept apart here.

On to `CCC(=C(c1ccc(O)cc1)c1ccc(OCCNC)cc1)c1ccccc1` [(Z)-endoxifen, 4-hydroxy-N-desmethyl-tamoxifen], for which the “% degradation” value in data set [1] (Acid: 0.5N HCl for 27 hrs) was “No degradation”; in data set [1] (Base: 0.5N NaOH for 27 hrs), 0.12%; in data set [1] (Heat: 105° C. for 51 hrs), “No degradation”. Further, the “Published Literature Result of Average Plasma (Z)-Endoxifen Css” value in data set [2] (1 mg dose) is 12.4 ng/mL and 33.1 nM; in data set [2] (2 mg dose) it was 18.6 ng/mL and 49.8 nM; in data set [2] (4 mg dose), 56.8 ng/mL and 152.1 nM; in data set [2] (8 mg dose) it was 96.8 ng/mL and 259.2 nM. The figures for the “% Ratio of Css Study (serum)/Literature (plasma)” value in data set [3] (1 mg dose), in data set [3] (2 mg dose) and in data set [3] (4 mg dose) were 154%, 204% and 150%, respectively. Further, the “Study Result of Average Serum (Z)-Endoxifen Css” value in data set [3] (1 mg dose) is 19.1 ng/mL and 51.1 nM; in data set [3] (2 mg dose) it was 38 ng/mL and 101.7 nM; in data set [3] (4 mg dose) it was 85.1 ng/mL and 227.9 nM. Further, in data set [3] (1 mg, 2 mg and 4 mg), the “Cmax and AUC24 hr across the three dose levels” value is “dose-proportionality”. Besides, in data set [3] (1 mg, 2 mg and 4 mg once daily, fifteen doses), the safety signals entry is “no clinically significant safety signals”. Further, the half-life in data set [3] (female, human, serum, oral, 1 mg, 2 mg and 4 mg, read-out: mean half-life (t1/2) by dose level) was in the range of 42 to 53 h. Besides, the “time to steady state” value in data set [3] (once daily dosing) was “approximately 7 days”. Further, in data set [3] (only reported in participants who received (Z)-Endoxifen), the “commonly occurring adverse events with a relationship of possible or probable” value is “upper respiratory infection, hot flush, abdominal distension, dry mouth and menstruation delayed”. The tolerability entry in data set [3] (single dose and then daily for 14 days, 1 mg, 2 mg and 4 mg) is “well tolerated”. Also, in data set [4] (multiple dose administration phase, 2 of 19 subjects), the “night sweats reported, percent of subjects” value is 11%. Also, the “hot flash reported, percent of subjects” value in data set [4] (multiple dose administration phase, 4 of the 18 subjects) is on record as 22%; in data set [4] (single dose administration phase, 2 of 18 subjects), 11%. The “Ki-67% reduction, AVERAGE” value in data set [5] (initial results, six subjects, 4 mg/day, average 22 days) came to 69%. In data set [5] (six subjects, 4 mg/day), the “Ki-67 reduction in every patient” value is listed as “more than 50%”. Besides, the “Ki-67 level after Endoxifen treatment (all patients)” value in data set [5] (six subjects, 4 mg/day, 16-40 days) is “low (low (defined as less than ˜14%))”. For the same molecule, the Ki-67% reduction in data set [5] (subject R1001) is reported as 60%; in data set [5] (subject R1002), 60%; in data set [5] (subject R1003), 87%; in data set [5] (subject R1004), 91%; in data set [5] (subject R1005), 60%; in data set [5] (subject R1006) it was 58%. Further, the “Post Endoxifen Ki-67%” value in data set [5] (subject R1001, 21 days on Endoxifen 4 mg, pre 5%) was 2%; in data set [5] (subject R1002, 23 days on Endoxifen 4 mg, pre 20%), 8%; in data set [5] (subject R1003, 17 days on Endoxifen 4 mg, pre 90%), 12%; in data set [5] (subject R1004, 17 days on Endoxifen 4 mg, pre 22%), 2%; in data set [5] (subject R1005, 40 days on Endoxifen 4 mg, pre 25%), 10%; in data set [5] (subject R1006, 16 days on Endoxifen 4 mg, pre 12%), 5%. In addition, in data set [5] (subsequent results), the “Ki-67 levels following treatment, all six patients” value is “below 25%”. For the same molecule, the “average reduction in tumor cell proliferation, as measured by Ki-67” value in data set [5] (subsequent results, 22 days of dosing, six subjects, p=0.031) is “about 74%”. Further, the “safety or tolerability issues, including vasomotor symptoms” value in data set [6] is reported as “no safety or tolerability issues”. Further, the “Plasma (Z)-endoxifen level” value in data set [7] (by Day 26 (600 hours post-dose)) is recorded as “below the detection levels”. The concentration at 14 days in data set [7] (female, human, blood, oral, 14 once daily 4 mg doses, read-out: (Z)-endoxifen maintained in the blood) was ~13 ng/mL and > 30 nM. Further, the figures for the “mean serum versus time-point matched mean plasma (Z)-endoxifen concentration” value in data set [7] (setting [8]) and in data set [7] (setting [9]) were “approximately 1.2 fold” and “approximately 1.1 fold”, respectively. The “time to achieve steady state levels of plasma and serum (Z)-endoxifen” value in data set [7] (once daily 4 mg doses) is reported as “approximately 14 days”.

Consider `CCC(=C(c1ccc(O)cc1)c1ccc(OCCNC)cc1)c1ccccc1` [(E)-endoxifen], for which the “(E)-endoxifen levels in serum and plasma” value in data set [7] (setting [8]) and in data set [7] (setting [9]) was “undetectable” throughout.

As for `CC/C(=C(\c1ccc(O)cc1)c1ccc(OCCNC)cc1)c1ccccc1.Cl` [Endoxifen Chloride], the “(Z)-Endoxifen Plasma” value in data set [2] (20 mg/day, Aromatase Inhibitor Refractory Metastatic Breast Cancer, Goetz et al. 2013) was 390 nM; in data set [2] (40 mg/day, Aromatase Inhibitor Refractory Metastatic Breast Cancer, Goetz et al. 2013), 660 nM; in data set [2] (60 mg/day, Aromatase Inhibitor Refractory Metastatic Breast Cancer, Goetz et al. 2013) it was 1,010 nM; in data set [2] (80 mg/day, Aromatase Inhibitor Refractory Metastatic Breast Cancer, Goetz et al. 2013), 1,610 nM; in data set [2] (100 mg/day, Aromatase Inhibitor Refractory Metastatic Breast Cancer, Goetz et al. 2013), 2,480 nM; in data set [2] (120 mg/day, Aromatase Inhibitor Refractory Metastatic Breast Cancer, Goetz et al. 2013) it was 2,180 nM. The “(Z)-Endoxifen Plasma” value in data set [2] (160 dose (20->160 mg/day), Goetz et al. 2015) was 3,600 nM. The Outcomes result is listed as “Gr 2 hot flash (1” in data set [2] (20 mg/day, Goetz et al. 2013); “None; Stable disease” in data set [2] (40 mg/day, Goetz et al. 2013); “Gr 4 Triglycerides” in data set [2] (60 mg/day, Goetz et al. 2013); “Gr 2 Hot flashes” in data set [2] (80 mg/day, Goetz et al. 2013); “Gr 2 nausea (1 pt); Gr” in data set [2] (100 mg/day, Goetz et al. 2013); “Gr 2 hypersomnia,” in data set [2] (120 mg/day, Goetz et al. 2013). Also, the “Outcomes: maximum tolerated dose” value in data set [2] (20->160 mg/day, Goetz et al. 2015) is “not observed. 1 DLT,”.

Source of the values: patent publication US12201591B2, “Sustained release compositions of endoxifen” (Atossa Therapeutics, Inc., priority 2019, dated 2025).
